From ChEMBL document CHEMBL1201862, “PubChem BioAssay data set” (2004) come the findings set out here.

The source made the active and inactive calls.

Assay [1] addresses T1, Cannabinoid receptor 1 (Homo sapiens, UniProt P21554). The assay is described as follows: SAR analysis of agonists of the Cannabinoid Receptor 1 using an Image-Based Assay - Set 3. [Related pubchem assays (depositor defined):AID1961, AID1965]. Type of assay: functional.
Assay [2] concerns the target T2, Cannabinoid receptor 2 (Homo sapiens, UniProt P34972). The assay is described as follows: SAR analysis of antagonists of the Cannabinoid Receptor 2 using an Image-Based Assay - Set 2. [Related pubchem assays (depositor defined):AID1961, AID1965]. In kind it is functional.
Assay [3] deals with T3, G-protein coupled receptor 35 (Homo sapiens, UniProt Q9HC97). Put plainly: SAR analysis of Agonists of the GPR35 Receptor using an Image-Based Assay - Set 3. [Related pubchem assays (depositor defined):AID1961, AID1965]. Type of assay: functional.
T3 sequence (Q9HC97 whole entry): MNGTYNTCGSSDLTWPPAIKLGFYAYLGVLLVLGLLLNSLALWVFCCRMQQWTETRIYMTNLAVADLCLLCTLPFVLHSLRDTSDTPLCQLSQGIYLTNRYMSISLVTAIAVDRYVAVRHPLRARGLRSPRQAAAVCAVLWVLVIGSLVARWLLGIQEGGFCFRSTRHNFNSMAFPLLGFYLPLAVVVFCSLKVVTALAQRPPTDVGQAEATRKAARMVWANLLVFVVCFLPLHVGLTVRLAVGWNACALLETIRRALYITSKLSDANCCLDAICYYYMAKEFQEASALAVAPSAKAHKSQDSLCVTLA
Assay [4] concerns the target G-protein coupled receptor 55 (Homo sapiens, UniProt Q9Y2T6). Put plainly: SAR analysis of selective Agonists of GPR55 using an Image-Based Assay - Set 2. [Related pubchem assays (depositor defined):AID1961, AID1965]. Type of assay: functional.
For assay [5], the target named is T3, G-protein coupled receptor 35. The assay is described as follows: SAR analysis of Antagonists of the GPR35 Receptor using an Image-Based Assay - Set 4. [Related pubchem assays (depositor defined):[…]]. Type of assay: functional.
For assay [6], the target named is T1, Cannabinoid receptor 1. Put plainly: SAR analysis of antagonists of the Cannabinoid Receptor 1 using an Image-Based Assay - Set 3. [Related pubchem assays (depositor defined):AID1961, AID1965]. In kind it is functional.
The target in assay [7] is T2, Cannabinoid receptor 2. Put plainly: SAR analysis of agonists of the Cannabinoid Receptor 2 using an Image-Based Assay - Set 2. [Related pubchem assays (depositor defined):AID1961, AID1965]. In kind it is functional.
Assay [8] in a line: BJeHLT cell viability loss – BJeHLT cells, dry powder, counter-screen for Ras selective lethality project, dose response (AID 493052). Type of assay: functional, cell-based. The conditions noted are these: Homo sapiens. On the technique in general: Counterscreens check selectivity or assay interference.
Assay [9] in a line: DRD BJ cell killing, Ras synthetic lethality – DRD BJ fibroblasts, HRASV12, dry powder, dose response (AID 493049). Type of assay: functional, cell-based.
Assay [10] can be described thus: BJeH cell viability loss – BJeH cells, dry powder, counter-screen for Ras selective lethality project, dose response (AID 493054). In kind it is functional, cell-based.
A short description of assay [11]: HRAS-V12 fibroblast viability reduction – cell-based, Alamar Blue, dry powder, Ras selective lethality project, primary screen (AID 493045). Type of assay: functional. The conditions noted are these: BJeLR.
The target in assay [12] is DNA dC->dU-editing enzyme APOBEC-3A (Homo sapiens, UniProt P31941). The assay is described as follows: Dose Response confirmation of small molecule APOBEC3A DNA Deaminase Inhibitors via a fluorescence-based single-stranded DNA deaminase assay. [Related pubchem assays (depositor defined):AID493011, AID493024]. In kind it is functional.
Sequence of DNA dC->dU-editing enzyme APOBEC-3A (P31941 whole entry): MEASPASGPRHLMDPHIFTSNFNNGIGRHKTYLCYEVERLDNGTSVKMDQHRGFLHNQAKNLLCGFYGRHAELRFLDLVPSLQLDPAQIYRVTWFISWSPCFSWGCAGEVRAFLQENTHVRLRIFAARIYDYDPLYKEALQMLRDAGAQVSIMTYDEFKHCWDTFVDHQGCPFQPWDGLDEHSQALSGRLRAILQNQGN
The target in assay [13] is DNA dC->dU-editing enzyme APOBEC-3G (Homo sapiens, UniProt Q9HC16). Type of assay: functional.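 Also: Dose-response counterscreen measuring inhibition of APOBEC3G DNA deaminase activity, run while confirming APOBEC3A inhibitors.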
Sequence of DNA dC->dU-editing enzyme APOBEC-3G (Q9HC16 whole entry): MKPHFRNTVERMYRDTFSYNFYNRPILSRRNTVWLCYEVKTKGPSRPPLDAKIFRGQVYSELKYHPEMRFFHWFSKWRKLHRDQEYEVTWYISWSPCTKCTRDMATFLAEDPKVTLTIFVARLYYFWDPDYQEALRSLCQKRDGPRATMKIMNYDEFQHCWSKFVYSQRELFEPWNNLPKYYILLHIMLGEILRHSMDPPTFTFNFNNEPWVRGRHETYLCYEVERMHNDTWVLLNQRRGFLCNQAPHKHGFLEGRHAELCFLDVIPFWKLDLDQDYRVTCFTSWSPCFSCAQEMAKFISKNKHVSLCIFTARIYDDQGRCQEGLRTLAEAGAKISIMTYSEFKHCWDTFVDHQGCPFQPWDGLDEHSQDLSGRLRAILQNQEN
A further assay has as its target Hexokinase (Trypanosoma brucei, UniProt Q38C41). Put plainly: Confirmation assay for inhibitors of Trypanosoma brucei hexokinase 1-Analogue-first series. [Related pubchem assays (depositor defined):AID1430, AID1632, AID2516, AID2560, AID2579, AID2600, AID449725, AID492951]. Type of assay: functional.

T1 sequence (P21554 whole entry): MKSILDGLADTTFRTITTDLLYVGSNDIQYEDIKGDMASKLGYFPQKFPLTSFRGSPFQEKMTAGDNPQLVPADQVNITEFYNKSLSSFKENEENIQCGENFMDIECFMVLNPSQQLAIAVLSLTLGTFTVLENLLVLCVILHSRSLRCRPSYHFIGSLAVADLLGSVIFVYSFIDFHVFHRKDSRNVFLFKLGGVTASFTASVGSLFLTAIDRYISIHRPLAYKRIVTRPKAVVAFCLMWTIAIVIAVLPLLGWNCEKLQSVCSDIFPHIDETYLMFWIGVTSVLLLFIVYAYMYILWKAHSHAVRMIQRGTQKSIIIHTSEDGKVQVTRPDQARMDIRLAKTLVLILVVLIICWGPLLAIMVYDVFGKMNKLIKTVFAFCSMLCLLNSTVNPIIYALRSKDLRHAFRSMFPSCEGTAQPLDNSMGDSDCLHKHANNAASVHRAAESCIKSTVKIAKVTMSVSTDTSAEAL
T2 sequence (P34972 whole entry): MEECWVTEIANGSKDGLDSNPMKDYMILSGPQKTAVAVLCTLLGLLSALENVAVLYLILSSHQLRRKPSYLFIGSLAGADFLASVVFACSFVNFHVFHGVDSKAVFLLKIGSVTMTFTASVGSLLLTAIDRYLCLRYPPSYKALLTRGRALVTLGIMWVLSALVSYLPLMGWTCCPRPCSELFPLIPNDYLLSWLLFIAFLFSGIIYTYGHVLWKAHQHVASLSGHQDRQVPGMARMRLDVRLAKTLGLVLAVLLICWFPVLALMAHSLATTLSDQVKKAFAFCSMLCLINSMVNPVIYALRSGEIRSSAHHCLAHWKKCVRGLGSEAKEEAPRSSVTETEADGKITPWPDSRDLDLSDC
Sequence of G-protein coupled receptor 55 (Q9Y2T6 whole entry): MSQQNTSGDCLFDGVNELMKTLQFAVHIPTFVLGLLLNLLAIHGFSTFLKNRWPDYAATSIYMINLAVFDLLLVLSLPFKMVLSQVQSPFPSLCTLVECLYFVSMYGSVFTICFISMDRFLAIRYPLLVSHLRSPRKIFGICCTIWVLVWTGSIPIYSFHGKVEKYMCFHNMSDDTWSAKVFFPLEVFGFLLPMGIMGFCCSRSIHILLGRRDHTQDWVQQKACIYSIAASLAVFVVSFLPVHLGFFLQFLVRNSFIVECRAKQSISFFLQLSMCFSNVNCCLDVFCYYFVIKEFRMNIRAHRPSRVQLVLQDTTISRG
Sequence of Hexokinase (Q38C41 whole entry): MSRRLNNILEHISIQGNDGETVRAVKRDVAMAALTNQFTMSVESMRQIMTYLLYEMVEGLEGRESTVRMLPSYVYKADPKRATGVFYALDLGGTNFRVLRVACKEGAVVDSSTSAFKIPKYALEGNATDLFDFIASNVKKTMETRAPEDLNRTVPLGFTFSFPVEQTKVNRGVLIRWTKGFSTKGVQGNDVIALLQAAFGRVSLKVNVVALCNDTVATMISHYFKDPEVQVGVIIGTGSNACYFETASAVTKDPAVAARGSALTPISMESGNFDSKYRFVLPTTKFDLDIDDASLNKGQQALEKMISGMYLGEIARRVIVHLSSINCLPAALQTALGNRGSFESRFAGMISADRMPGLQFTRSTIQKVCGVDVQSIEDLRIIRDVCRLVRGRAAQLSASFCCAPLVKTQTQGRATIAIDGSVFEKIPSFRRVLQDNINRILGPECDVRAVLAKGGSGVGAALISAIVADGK

Usually EC50 stands for the midpoint of the concentration-response curve. The term IC50 denotes the point on the concentration scale where inhibition reaches its midpoint. With `CCCc1cc(C(=O)Nc2cc(S(=O)(=O)N3CCOCC3)ccc2OC)sc1C`, the EC50 (on Cannabinoid receptor 1 [1]; in assay [3]; in assay [4]; at Cannabinoid receptor 2 [7]) was > 32 µM (inactive) in each case. Moreover, the IC50 at Cannabinoid receptor 2 [2] is > 32 µM (inactive); in assay [5], > 32 µM (inactive); at Cannabinoid receptor 1 [6], 7.68 µM (active).

A word on the AC50: it is the concentration at which the activity in the assay is half-maximal. For `O=C(NCCc1ccccc1)C(c1cccs1)N(C(=O)CCl)c1cccc(Cl)c1` (stereo not given), the AC50 in assay [8] is 0.331 µM (active); in [9], 0.154 µM (active); in assay [10], 0.544 µM (active); in assay [11], 0.156 µM (active).

For the compound `COc1ccc(N(C(=O)CCl)C(C)(C)C(=O)NCCc2ccccc2)cc1Cl`, the AC50 in assay [8] is 0.127 µM (active); in assay [9] it was 0.06 µM (active); in assay [10], 0.254 µM (active); in assay [11], 0.058 µM (active).

On to `COc1ccc2c(c1)cc(C)c1nnc(SCC(=O)Nc3nc(C)cs3)n12`, for which the EC50 (on Cannabinoid receptor 1 [1]; in assay [3]; in assay [4]; at Cannabinoid receptor 2 [7]) was > 32 µM (inactive) in each case. For the same compound, the IC50 (at Cannabinoid receptor 2 [2]; in assay [5]; at Cannabinoid receptor 1 [6]) was > 32 µM (inactive) throughout.

Regarding `CCN1CCN(c2ccc(S(=O)(=O)N3CCCCC3)cc2NC(=O)c2ccc(OC(F)F)cc2)CC1`, the results for the IC50 in [12] and in assay [13] were 10.9 µM (active) and 9.05 µM (active), respectively.

As for `N#Cc1ccc(Oc2ccc3c(c2)B(O)OC3)cc1`, at Hexokinase, the IC50 was > 25 µM (inactive).
